Results taken from the NIST ThermoML archive (doi:10.1016/j.jct.2017.06.001).
± gives the expanded uncertainty stated by the source.

Assay: xn = mol fraction of the nth substance listed
Details: 100 kPa, Liquid; for speed of sound: Frequency=5 MHz, Pulse-echo method; for mass density: Vibrating tube method

OCCCCCO [1,5-pentanediol] + O
Details	mass density [kg/m3]	speed of sound [m/s]
298.15 K, x1 = 0.005	996.7 ± 0.53	–
298.15 K, x1 = 0.0101	996.7 ± 1	–
298.15 K, x1 = 0.0196	997.13 ± 1	–
298.15 K, x1 = 0.0251	997.61 ± 1	–
298.15 K, x1 = 0.0304	998.17 ± 1	–
298.15 K, x1 = 0.05	999.75 ± 1	–
298.15 K, x1 = 0.0769	1001.11 ± 1	–
298.15 K, x1 = 0.1002	1002.09 ± 1.1	–
298.15 K, x1 = 0.1282	–	1678.7 ± 1.2
298.15 K, x1 = 0.1298	–	1679.1 ± 1.2
298.15 K, x1 = 0.1332	–	1680 ± 1.2
298.15 K, x1 = 0.1353	–	1680.5 ± 1.2
298.15 K, x1 = 0.1358	–	1680.6 ± 1.2
298.15 K, x1 = 0.1417	–	1681.8 ± 1.3
298.15 K, x1 = 0.1438	1002.72 ± 1.1	–
298.15 K, x1 = 0.1444	–	1682.3 ± 1.3
298.15 K, x1 = 0.1473	–	1682.8 ± 1.3
298.15 K, x1 = 0.1535	–	1683.7 ± 1.3
298.15 K, x1 = 0.1536	–	1683.7 ± 1.3
298.15 K, x1 = 0.1588	–	1684.3 ± 1.3
298.15 K, x1 = 0.1603	–	1684.5 ± 1.3
298.15 K, x1 = 0.1616	–	1684.6 ± 1.3
298.15 K, x1 = 0.1649	–	1684.9 ± 1.3
298.15 K, x1 = 0.1676	–	1685.1 ± 1.3
298.15 K, x1 = 0.1771	–	1685.7 ± 1.3
298.15 K, x1 = 0.1845	1002.56 ± 1.1	–
298.15 K, x1 = 0.1944	–	1686.1 ± 1.3
298.15 K, x1 = 0.2114	–	1686 ± 1.3
298.15 K, x1 = 0.2309	–	1685.4 ± 1.3
298.15 K, x1 = 0.247	–	1684.6 ± 1.3
298.15 K, x1 = 0.2503	1001.62 ± 1.2	–
298.15 K, x1 = 0.2649	–	1683.5 ± 1.4
298.15 K, x1 = 0.2807	–	1682.5 ± 1.4
298.15 K, x1 = 0.2987	–	1681.1 ± 1.4
298.15 K, x1 = 0.3	1000.58 ± 1.2	–
298.15 K, x1 = 0.3178	–	1679.6 ± 1.4
298.15 K, x1 = 0.3343	999.9 ± 1.3	–
298.15 K, x1 = 0.3356	–	1678 ± 1.4
298.15 K, x1 = 0.3619	–	1675.6 ± 1.4
298.15 K, x1 = 0.38	–	1673.8 ± 1.5
298.15 K, x1 = 0.4015	–	1671.6 ± 1.5
298.15 K, x1 = 0.4171	998.14 ± 1.4	–
298.15 K, x1 = 0.4247	–	1669.1 ± 1.5
298.15 K, x1 = 0.4487	–	1666.4 ± 1.5
298.15 K, x1 = 0.454	997.25 ± 1.4	–
298.15 K, x1 = 0.4652	–	1664.4 ± 1.6
298.15 K, x1 = 0.4828	–	1662.2 ± 1.6
298.15 K, x1 = 0.4985	–	1660.2 ± 1.6
298.15 K, x1 = 0.5003	996.2 ± 1.5	–
298.15 K, x1 = 0.5142	–	1658.1 ± 1.6
298.15 K, x1 = 0.5304	–	1656 ± 1.6
298.15 K, x1 = 0.5362	995.4 ± 1.5	–
298.15 K, x1 = 0.5465	–	1653.8 ± 1.7
298.15 K, x1 = 0.5643	–	1651.3 ± 1.7
298.15 K, x1 = 0.5819	–	1648.8 ± 1.7
298.15 K, x1 = 0.5991	–	1646.4 ± 1.7
298.15 K, x1 = 0.6177	993.8 ± 1.7	–
298.15 K, x1 = 0.6187	–	1643.6 ± 1.8
298.15 K, x1 = 0.6363	–	1641.1 ± 1.8
298.15 K, x1 = 0.6478	993.2 ± 1.7	–
298.15 K, x1 = 0.6547	–	1638.5 ± 1.8
298.15 K, x1 = 0.6726	–	1635.9 ± 1.8
298.15 K, x1 = 0.6904	–	1633.4 ± 1.9
298.15 K, x1 = 0.7025	992.2 ± 1.8	–
298.15 K, x1 = 0.7097	–	1630.7 ± 1.9
298.15 K, x1 = 0.729	–	1628 ± 1.9
298.15 K, x1 = 0.7504	991.4 ± 1.9	–
298.15 K, x1 = 0.7505	–	1625.1 ± 1.9
298.15 K, x1 = 0.7712	–	1622.3 ± 2
298.15 K, x1 = 0.7919	–	1619.6 ± 2
298.15 K, x1 = 0.7927	990.6 ± 2	–
298.15 K, x1 = 0.8118	–	1617 ± 2
298.15 K, x1 = 0.8321	–	1614.5 ± 2
298.15 K, x1 = 0.8523	–	1612 ± 2.1
298.15 K, x1 = 0.8605	989.3 ± 2.1	–
298.15 K, x1 = 0.8751	–	1609.2 ± 2.1
298.15 K, x1 = 0.8978	–	1606.4 ± 2.1
298.15 K, x1 = 0.9004	988.6 ± 2.2	–
298.15 K, x1 = 0.9201	–	1603.7 ± 2.2
298.15 K, x1 = 0.9427	–	1600.9 ± 2.2
298.15 K, x1 = 0.9496	987.5 ± 2.3	–
298.15 K, x1 = 0.9712	–	1597.4 ± 2.3
298.15 K, x1 = 0.9832	–	1595.9 ± 2.3
298.15 K, x1 = 0.993	–	1594.7 ± 2.3
298.15 K, x1 = 1	986.5 ± 2.1	1593.8 ± 2.3
303.15 K, x1 = 0.0002	–	1510.1 ± 1.1
303.15 K, x1 = 0.0005	–	1510.9 ± 1.1
303.15 K, x1 = 0.0007	–	1511.8 ± 1.1
303.15 K, x1 = 0.0011	–	1513 ± 1.1
303.15 K, x1 = 0.0014	–	1514.2 ± 1.1
303.15 K, x1 = 0.0019	–	1515.5 ± 1.1
303.15 K, x1 = 0.0023	–	1517.1 ± 1.1
303.15 K, x1 = 0.0028	–	1518.5 ± 1.1
303.15 K, x1 = 0.0033	–	1520.2 ± 1.1
303.15 K, x1 = 0.0038	–	1521.9 ± 1.2
303.15 K, x1 = 0.0045	–	1524.1 ± 1.2
303.15 K, x1 = 0.0052	–	1526.2 ± 1.2
303.15 K, x1 = 0.006	–	1528.5 ± 1.2
303.15 K, x1 = 0.0067	–	1530.9 ± 1.2
303.15 K, x1 = 0.0076	–	1533.3 ± 1.2
303.15 K, x1 = 0.0084	–	1535.8 ± 1.2
303.15 K, x1 = 0.0093	–	1538.3 ± 1.2
303.15 K, x1 = 0.0102	–	1540.9 ± 1.2
303.15 K, x1 = 0.0111	–	1543.4 ± 1.2
303.15 K, x1 = 0.0121	–	1546.1 ± 1.2
303.15 K, x1 = 0.0131	–	1549 ± 1.2
303.15 K, x1 = 0.0143	–	1552 ± 1.2
303.15 K, x1 = 0.0152	–	1554.6 ± 1.2
303.15 K, x1 = 0.0164	–	1557.6 ± 1.2
303.15 K, x1 = 0.0176	–	1560.4 ± 1.2
303.15 K, x1 = 0.0187	–	1563.2 ± 1.2
303.15 K, x1 = 0.0198	–	1565.8 ± 1.2
303.15 K, x1 = 0.0211	–	1568.8 ± 1.2
303.15 K, x1 = 0.0224	–	1571.8 ± 1.2
303.15 K, x1 = 0.0238	–	1575 ± 1.2
303.15 K, x1 = 0.025	–	1577.6 ± 1.2
303.15 K, x1 = 0.0263	–	1580.4 ± 1.2
303.15 K, x1 = 0.0274	–	1582.8 ± 1.2
303.15 K, x1 = 0.0286	–	1585.1 ± 1.2
303.15 K, x1 = 0.0298	–	1587.5 ± 1.2
303.15 K, x1 = 0.0311	–	1590.1 ± 1.2
303.15 K, x1 = 0.0323	–	1592.4 ± 1.2
303.15 K, x1 = 0.0336	–	1594.7 ± 1.2
303.15 K, x1 = 0.035	–	1597.4 ± 1.2
303.15 K, x1 = 0.0363	–	1599.7 ± 1.2
303.15 K, x1 = 0.0378	–	1602.2 ± 1.2
303.15 K, x1 = 0.0396	–	1605.2 ± 1.2
303.15 K, x1 = 0.0417	–	1608.5 ± 1.2
303.15 K, x1 = 0.0431	–	1610.7 ± 1.2
303.15 K, x1 = 0.0455	–	1614.4 ± 1.2
303.15 K, x1 = 0.0471	–	1616.7 ± 1.2
303.15 K, x1 = 0.0489	–	1619.2 ± 1.2
303.15 K, x1 = 0.0504	–	1621.1 ± 1.2
303.15 K, x1 = 0.0519	–	1623.1 ± 1.2
303.15 K, x1 = 0.0541	–	1625.9 ± 1.2
303.15 K, x1 = 0.0565	–	1628.8 ± 1.2
303.15 K, x1 = 0.0594	–	1632.1 ± 1.2
303.15 K, x1 = 0.0615	–	1634.4 ± 1.2
303.15 K, x1 = 0.0646	–	1637.6 ± 1.2
303.15 K, x1 = 0.0673	–	1640.2 ± 1.2
303.15 K, x1 = 0.0706	–	1643.2 ± 1.2
303.15 K, x1 = 0.0746	–	1646.6 ± 1.2
303.15 K, x1 = 0.0782	–	1649.5 ± 1.2
303.15 K, x1 = 0.0815	–	1651.8 ± 1.2
303.15 K, x1 = 0.0842	–	1653.7 ± 1.2
303.15 K, x1 = 0.0876	–	1655.8 ± 1.2
303.15 K, x1 = 0.0913	–	1658 ± 1.2
303.15 K, x1 = 0.0937	–	1659.3 ± 1.2
303.15 K, x1 = 0.0967	–	1660.8 ± 1.2
303.15 K, x1 = 0.0996	–	1662.2 ± 1.2
303.15 K, x1 = 0.1022	–	1663.4 ± 1.2
303.15 K, x1 = 0.1053	–	1664.7 ± 1.2
303.15 K, x1 = 0.1078	–	1665.7 ± 1.2
303.15 K, x1 = 0.1089	–	1666.1 ± 1.2
303.15 K, x1 = 0.1114	–	1667 ± 1.2
303.15 K, x1 = 0.1126	–	1667.4 ± 1.2
303.15 K, x1 = 0.1153	–	1668.3 ± 1.2
